Measured values reported in patent publication US12102686B2, “Delivery systems and methods for reactive hydroxyl-containing compounds” (priority 2018, dated 2024).

Assay: Free curcumin stability and consumption in the presence of AAPH (absorbance at 420 nm, HPLC)
Type: physicochemical
Procedure: Periodic samples were collected and read at 420 nm using a Cary 50 UV-Vis Microplate Reader spectroscopy instrument to monitor absorbance of solution over 24 hours.

## COc1cc(/C=C/C(=O)CC(=O)/C=C/c2ccc(O)c(OC)c2)ccc1O [Curcumin]
50 μg/mL curcumin in 0.1% (w/v) Tween 80 PBS (pH 7.4), 37° C., no AAPH
  time curcumin was stable in aqueous solution (no significant change in absorbance, no precipitation): over 24 hours
10 mM AAPH
  time after which the amount of curcumin decreases to 20%: 4 h
10 mM AAPH solution, within the first 8 hours
  curcumin consumed: 90%
100 mM AAPH
  time after which the amount of curcumin decreases to 20%: 0.333 h
  time of finality of curcumin consumption, experimental: 8 h
100 mM AAPH solution, within the first hour
  curcumin consumed: 90%
Versus demethoxycurcumin and bisdemethoxycurcumin, FIG. 3
  curcuminoid consumption susceptibility by AAPH (HPLC peak): diminished at a faster rate
